Results on two compounds are retold here after patent US20050221355A1, “cDNA for human methylenetetrahydrofolate reductase and uses thereof” (McGill University, priority 1994, published 2005).

Data set [1] deals with colon carcinoma lines that carry the 677C/T mutation in MTHFR. Put plainly: Methotrexate added to colon carcinoma lines in culture (cell kill), lines with the MTHFR mutation. The data set is classed as cell-based. The following applies: colon carcinoma lines with the 677C/T MTHFR mutation; read-out: IC50 (concentration needed to kill half the cells). As for the experimental part: (§1) Various doses of methotrexate (a drug used in treatment of cancer and arthritis, possibly other diseases) were added to colon carcinoma lines in culture. […] To extrapolate to the human condition, patients with this MTHFR mutation might require lower doses of methotrexate for therapy, or might be subject to methotrexate toxicity at high doses.

The test system of data set [2] is colon carcinoma lines that do not carry the 677C/T mutation in MTHFR. Put plainly: Methotrexate added to colon carcinoma lines in culture (cell kill), lines without the MTHFR mutation. The data set is classed as cell-based. The following applies: colon carcinoma lines without the 677C/T MTHFR mutation; read-out: IC50 (concentration needed to kill half the cells). How it is done: as §1

The test system of a further data set is human MTHFR. Put plainly: Enzymatic and thermolability assay of E. coli extracts expressing wild-type or mutagenized MTHFR cDNA. The data set is classed as biochemical.

Protocol for human MTHFR: Overnight cultures of JM105™ containing vector alone, vector+wild-type MTHFR cDNA, or vector+mutagenized cDNA were grown at 370° C. in 2×YT media with 0.05 mg/ml ampicillin. Fresh 10 ml. cultures of each were inoculated with approximately 50 μL of overnight cultures for a starting O.D. of 0.05, and were grown at 370° C. to an O.D. of 1 at 420 nM. Cultures were then induced for 2 hrs. with 1 mM IPTG and pelleted. The cells were resuspended in TE buffer with 2 μg/ml aprotinin and 2 μg/ml leupeptin (3.5×wet weight of cells). Cell suspensions were sonicated on ice for 3×15 sec. to break open cell membranes and then centrifuged for 30 min. at 4° C. to pellet cell debris and unlysed cells. The supernatant was removed and assayed for protein concentration with the Bio-Rad™ protein assay. […] Enzymatic assays were performed by established procedures; pre-treating the extracts at 46° C. for 5 min. before determining activity assessed thermolability. Specific activities (nmol formaldehyde/hr./mg. protein) were calculated for the 2 cDNA-containing constructs after subtraction of the values obtained with vector alone (to subtract background E. Coli MTHFR activity).

On to `CN(Cc1cnc2nc(N)nc(N)c2n1)c1ccc(C(=O)N[C@@H](CCC(=O)O)C(=O)O)cc1` [methotrexate], for which the IC50 was roughly 20 nM in data set [1] and roughly 150 nM in data set [2].

Consider “MTHFR: recombinant human methylenetetrahydrofolate reductase, about 70 kDa, expressed in E. coli from the wild-type 2.2 kb cDNA”, for which the “mean specific activity before heating” value is listed as 3.8 nmol formaldehyde/hr./mg. protein in the data set on human MTHFR (Exp. 1, vector-alone value subtracted) and 6.2 nmol formaldehyde/hr./mg. protein with human MTHFR (Exp. 2, vector-alone value subtracted).
